The values below come from patent publication US8546443B2, “Benzylic oxindole pyrimidines” (Boehringer Ingelheim International GmbH, priority 2010, dated 2013).

In the test the target is T1, cytoplasmic kinase domain of human IGF-1R (IGF-1R-GST) (Homo sapiens, UniProt P08069).
T1 construct: cytoplasmic kinase domain of human IGF-1R (amino acids 964-1370); GST (glutathione-S-transferase); made in house; host or cells: High Five insect cells (Invitrogen)
In words: Insulin-like growth factor-1 receptor (IGF-1R) kinase assay (DELFIA). Particulars: IGF-1R-GST kinase activity, read-out: IGF1R IC50. The format is biochemical. As to the method: Insulin-Like Growth Factor-1 Receptor (IGF-1R)-Kinase Assay
The kinase activity is measured by DELFIA® assay (dissociation-enhanced lanthanide fluorescence immunoassay, Perkin Elmer). […] Enzyme activity is measured in the presence of substances and a control substance. Poly-glutamate-tyrosine peptide (pEY, Sigma Aldrich) and biotinylated pEY (bio-pEY) are used as reaction substrates.
After 40 min at RT the reactions are stopped with 50 μL of stop solution (250 mM EDTA, 20 mM HEPES pH 7.4). 90 μL from each reaction are transferred onto streptavidin-coated 96-well plates. After 120 min incubation at RT the plates are washed three times with 200 μL phosphate-buffered saline (PBS) per well. The plates are incubated for 60 min with 100 μL of europium-coupled antibody against phospho-tyrosine (diluted 1/2000 in Perkin Elmer DELFIA assay buffer) per well. The plates are washed three times with 200 μL per well of DELFIA washing buffer. 100 μL DELFIA Enhancement Solution (Perkin Elmer) is added to each well, and the plates are incubated for 10 min. The fluorescence signal is measured with a Wallac Victor TRF Reader. IC50 values for the inhibition of the IGF-1R-kinase activity are calculated using the programmes Fifty (Version 2) and GraphPad (Version 3.0).

Structures are written as SMILES.

T1 sequence (P08069 964-1367 limits assumed): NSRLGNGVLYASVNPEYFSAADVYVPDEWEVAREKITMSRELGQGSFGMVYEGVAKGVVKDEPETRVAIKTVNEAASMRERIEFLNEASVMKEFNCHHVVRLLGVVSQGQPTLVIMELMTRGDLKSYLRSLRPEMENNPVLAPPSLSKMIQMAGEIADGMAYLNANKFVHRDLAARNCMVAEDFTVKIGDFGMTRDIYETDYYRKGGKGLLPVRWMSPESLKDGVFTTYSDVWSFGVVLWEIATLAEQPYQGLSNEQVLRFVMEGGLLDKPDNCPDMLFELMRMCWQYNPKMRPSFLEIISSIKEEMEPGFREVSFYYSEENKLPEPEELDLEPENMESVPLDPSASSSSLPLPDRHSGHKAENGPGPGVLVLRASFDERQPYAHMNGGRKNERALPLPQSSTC

As to `COc1cc(N2CCN(C)CC2)ccc1Nc1ncc(C(F)(F)F)c(NCc2cccc3c2C(C)(C)C(=O)N3C)n1` [Example I-127], the IC50 came out at 3 nM.

Turning to `COc1cc(N2CCN(C(=O)CN3CCN(C)CC3)CC2)ccc1Nc1ncc(C(F)(F)F)c(NCc2cccc3c2C(C)(C)C(=O)N3)n1` [Example I-88], the IC50 was found to be 9 nM.

As for `CCc1cc(Nc2ncc(C(F)(F)F)c(NCc3cccc4c3CC(=O)N4)n2)c(OC)cc1N1CCN(C(C)C)CC1` [Example I-137], the IC50 was 65 nM.

In the case of `COc1cc(C(=O)NC2CCN(C)CC2)ccc1Nc1ncc(C(F)(F)F)c(NCc2cccc3c2C(C)(C)C(=O)N3)n1` [Example I-228], the IC50 came out at 8 nM.

As for `CN(C)CC(=O)N1CCC(c2ccc(Nc3ncc(C(F)(F)F)c(NCc4cccc5c4C(C)(C)C(=O)N5)n3)cc2)CC1` [Example I-75], the IC50 was determined as 2 nM.

`COc1cc(N2CCN(C3CCN(C(C)=O)CC3)CC2)ccc1Nc1ncc(C(F)(F)F)c(NCc2cccc3c2CC(=O)N3)n1` [Example I-110]: the IC50 came to 8 nM.

On to `COc1cc(N2CCN(C3CCN(C4CCOCC4)CC3)CC2)ccc1Nc1ncc(C(F)(F)F)c(NCc2cccc3c2CC(=O)N3)n1` [Example I-115], for which the IC50 was 10 nM.

For `COc1cc(N2CCN(CCO)CC2)ccc1Nc1ncc(C(F)(F)F)c(NCc2cccc3c2CC(=O)N3)n1` [Example I-223], the IC50 came to 18 nM.

Take `COc1cc(N2CCN(C3CCOCC3)[C@H](C)C2)ccc1Nc1ncc(C(F)(F)F)c(NCc2cccc3c2C(C)(C)C(=O)N3)n1` [Example I-105]: the IC50 was 2 nM.

As for `COc1cc(N2CCN(C3CCOCC3)CC2)ccc1Nc1ncc(C(F)(F)F)c(NCc2cccc3c2CC(=O)N3)n1` [Example I-118], the IC50 worked out at 11 nM.

Take `CCOc1cc(N2CCN(C(C)C)CC2)ccc1Nc1ncc(C(F)(F)F)c(NCc2cccc3c2CC(=O)N3)n1` [Example I-139]: the IC50 is 8 nM.

`COc1cc(N2CCC(N3CCOCC3)CC2)ccc1Nc1ncc(C(F)(F)F)c(NCc2cccc3c2C(C)(C)C(=O)N3)n1` [Example I-171]: the IC50 came to 0.38 nM.

In the case of `CN(C)CCCC(=O)N1CCC(c2ccc(Nc3ncc(C(F)(F)F)c(NCc4cccc5c4C(C)(C)C(=O)N5)n3)cc2)CC1` [Example I-74], the IC50 came to 2 nM.

For `COc1cc(N2CCN(C3CCN(CCO)CC3)CC2)ccc1Nc1ncc(C(F)(F)F)c(NCc2cccc3c2CC(=O)N3)n1` [Example I-121], the IC50 is 16 nM.

With `COC(=O)N1CCN(c2ccc(Nc3ncc(C(F)(F)F)c(NCc4cccc5c4C(C)(C)C(=O)N5)n3)c(OC)c2)C[C@H]1C` [Example I-73], the IC50 is 29 nM.

With `COc1cc(N2CCC(N3CC[C@@H](O)C3)CC2)ccc1Nc1ncc(C(F)(F)F)c(NCc2cccc3c2C(C)(C)C(=O)N3)n1` [Example I-174], the IC50 was found to be 0.81 nM.

Turning to `CCN1CCC(N2CCN(c3ccc(Nc4ncc(C(F)(F)F)c(NCc5cccc6c5CC(=O)N6)n4)c(OC)c3)CC2)CC1` [Example I-114], the IC50 came out at 4 nM.

In the case of `COc1cc(N2CCN(C(=O)N(C)C)CC2)ccc1Nc1ncc(C(F)(F)F)c(NCc2cccc3c2C(C)(C)C(=O)N3)n1` [Example I-76], the IC50 worked out at 11 nM.

Take `COC(=O)N1CC2CC1CN2c1ccc(Nc2ncc(C(F)(F)F)c(NCc3cccc4c3C(C)(C)C(=O)N4)n2)c(OC)c1` (stereo not drawn) [Example I-82]: the IC50 was 65 nM.

On to `COc1cc(N2CCC(NCCN(C)C)CC2)ccc1Nc1ncc(C(F)(F)F)c(NCc2cccc3c2CC(=O)N3)n1` [Example I-194], for which the half-inhibitory concentration (IC50) was determined as 7 nM.

Regarding `COc1cc(N2CCN(C(=O)C3CCCN(C)C3)CC2)ccc1Nc1ncc(C(F)(F)F)c(NCc2cccc3c2C(C)(C)C(=O)N3)n1` (stereo not drawn) [Example I-90], the IC50 was 0.32 nM.

As for `CC1(C)C(=O)Nc2cccc(CNc3nc(Nc4ccc(C5CCN(C(=O)CN)CC5)cc4)ncc3Cl)c21` [Example I-50], the 50% inhibitory concentration (IC50) is 3 nM.

With `CCOc1cc(N2CCN(C3CCN(C)CC3)CC2)ccc1Nc1ncc(C(F)(F)F)c(NCc2cccc3c2C(C)(C)C(=O)N3)n1` [Example I-145], the 50% inhibitory concentration (IC50) was 0.67 nM.

For the molecule `COc1cc(N2CCC(NCCO)CC2)ccc1Nc1ncc(C(F)(F)F)c(NCc2cccc3c2CC(=O)N3)n1` [Example I-191], the IC50 turned out to be 6 nM.

On to `COc1cc(N2CC3CC2CN3C2COC2)ccc1Nc1ncc(C(F)(F)F)c(NCc2cccc3c2C(C)(C)C(=O)N3)n1` (stereo not drawn) [Example I-154], for which the IC50 worked out at 13 nM.

Turning to `COc1cc(N2CCC(N3CCN(C4CCOCC4)CC3)CC2)ccc1Nc1ncc(C(F)(F)F)c(NCc2cccc3c2CC(=O)N3)n1` [Example I-200], the IC50 came out at 13 nM.

As for `COc1cc(C(=O)NC2CCN(C)CC2)ccc1Nc1ncc(C(F)(F)F)c(NCc2cccc3c2C(C)(C)C(=O)N3C)n1` [Example I-231], the IC50 amounted to 15 nM.

Turning to `COc1cc(N2CCN(C)[C@H](C)C2)ccc1Nc1ncc(C(F)(F)F)c(NCc2cccc3c2C(C)(C)C(=O)N3)n1` [Example I-108], the IC50 was determined as 0.93 nM.

For the molecule `CCN1CCN(c2ccc(Nc3ncc(C(F)(F)F)c(NCc4cccc5c4C(C)(C)C(=O)N5)n3)c(OC)c2)C[C@H]1C` [Example I-107], the IC50 was 0.62 nM.

Regarding `COc1cc(N2CCN(Cc3ccco3)CC2)ccc1Nc1ncc(C(F)(F)F)c(NCc2cccc3c2C(C)(C)C(=O)N3)n1` [Example I-164], the IC50 is 14 nM.

Take `CN1CCN(c2ccc(Nc3ncc(Br)c(NCc4cccc5c4CC(=O)N5)n3)cc2)CC1` [Example I-8]: the IC50 turned out to be 28 nM.

`COc1cc(N2CCN(C3CCN(C)CC3)CC2)ccc1Nc1ncc(C(F)(F)F)c(NCc2cccc3c2CC(=O)N3)n1` [Example I-117]: the IC50 is 9 nM.

As to `COc1cc(N2CCC(N3CCC(OC)CC3)CC2)ccc1Nc1ncc(C(F)(F)F)c(NCc2cccc3c2CC(=O)N3)n1` [Example I-192], the IC50 was 6 nM.

Regarding `COc1cc(N2CCN(C(=O)N(C)C)CC2)ccc1Nc1ncc(C(F)(F)F)c(NCc2cccc3c2CC(=O)N3)n1` [Example I-71], the concentration for half-maximal inhibition (IC50) worked out at 50 nM.

Turning to `COc1cc(N2CCN(C3CCC3)CC2)ccc1Nc1ncc(Cl)c(NCc2cccc3c2C(C)(C)C(=O)N3)n1` [Example I-96], the IC50 was 3 nM.

As for `COCCNC1CCN(c2ccc(Nc3ncc(C(F)(F)F)c(NCc4cccc5c4C(C)(C)C(=O)N5)n3)c(OC)c2)CC1` [Example I-167], the IC50 was 0.2 nM.

As for `COc1cc(N2CCC(N3CCCC3)CC2)ccc1Nc1ncc(C(F)(F)F)c(NCc2cccc3c2CC(=O)N3)n1` [Example I-189], the IC50 is 5 nM.

Consider `COc1cc(N2CC3CC2CN3C(C)=O)ccc1Nc1ncc(C(F)(F)F)c(NCc2cccc3c2C(C)(C)C(=O)N3)n1` (stereo not drawn) [Example I-80], for which the IC50 was found to be 47 nM.

On to `COCCCN(C)C1CCN(c2ccc(Nc3ncc(C(F)(F)F)c(NCc4cccc5c4C(C)(C)C(=O)N5)n3)c(OC)c2)CC1` [Example I-168], for which the IC50 was determined as 0.2 nM.

On to `COc1cc(N2CCC(N(C)C)CC2)ccc1Nc1ncc(C(F)(F)F)c(NCc2cccc3c2CC(=O)N3)n1` [Example I-184], for which the IC50 was 4 nM.

As for `CCN1CCN(c2ccc(Nc3ncc(C(F)(F)F)c(NCc4cccc5c4C(C)(C)C(=O)N5)n3)c(OC)c2)CC1` [Example I-157], the IC50 worked out at 0.61 nM.

In the case of `CN1CCN(c2ccc(Nc3ncc(Cl)c(NCc4cccc5c4C(C)(C)C(=O)N5)n3)cc2)CC1` [Example I-94], the IC50 was found to be 14 nM.
